Test system: immune cell subsets in PBMC cultures from HIV-1 infected subjects on cART
Assay: Induced immune cell activation in PBMC cultures from HIV-1 infected subjects on cART (flow cytometry)
Type: cell-based, human
Conditions: for B Cells CD69 % / B Cells CD69 Fold vs DMSO / B Cells CD80 % / B Cells CD80 Fold vs DMSO / DCs CD69 % / DCs CD69 Fold vs DMSO / DCs CD80 % / DCs CD80 Fold vs DMSO / CD4+ T Cells CD25 % / CD4+ T Cells CD25 Fold vs DMSO / CD4+ T Cells CD69 % / CD4+ T Cells CD69 Fold vs DMSO / CD4+ T Cells Perforin % / CD4+ T Cells Perforin Fold vs DMSO / CD8+ T Cells CD25 % / CD8+ T Cells CD25 Fold vs DMSO / CD8+ T Cells CD28 % / CD8+ T Cells CD28 Fold vs DMSO / CD8+ T Cells CD38 % / CD8+ T Cells CD38 Fold vs DMSO / CD8+ T Cells CD69 % / CD8+ T Cells CD69 Fold vs DMSO / Monocytes CD11c % / Monocytes CD11c Fold vs DMSO / Monocytes CD69 % / Monocytes CD69 Fold vs DMSO / Monocytes CD80 % / Monocytes CD80 Fold vs DMSO / NK Cells CD25 % / NK Cells CD25 Fold vs DMSO / NK Cells CD69 % / NK Cells CD69 Fold vs DMSO: 2 days, geometric mean; for B Cells CD69 % / B Cells CD69 Fold vs DMSO / B Cells CD80 % / B Cells CD80 Fold vs DMSO / DCs CD69 % / DCs CD69 Fold vs DMSO / DCs CD80 % / DCs CD80 Fold vs DMSO: N = 4; for CD4+ T Cells CD25 % / CD4+ T Cells CD25 Fold vs DMSO / CD4+ T Cells CD69 % / CD4+ T Cells CD69 Fold vs DMSO / CD4+ T Cells Perforin % / CD4+ T Cells Perforin Fold vs DMSO / CD8+ T Cells CD25 % / CD8+ T Cells CD25 Fold vs DMSO / CD8+ T Cells CD28 % / CD8+ T Cells CD28 Fold vs DMSO / CD8+ T Cells CD38 % / CD8+ T Cells CD38 Fold vs DMSO / CD8+ T Cells CD69 % / CD8+ T Cells CD69 Fold vs DMSO / Monocytes CD11c % / Monocytes CD11c Fold vs DMSO / Monocytes CD69 % / Monocytes CD69 Fold vs DMSO / Monocytes CD80 % / Monocytes CD80 Fold vs DMSO / NK Cells CD25 % / NK Cells CD25 Fold vs DMSO / NK Cells CD69 % / NK Cells CD69 Fold vs DMSO: N = 6
Experimental: TLR8 modulating compound affects activation of distinct cell populations, PBMCs were purified from HIV-1 infected subjects on cART, as described in Example 121 (anonymized participant IDs 184, 185, 188, 189, 190, and 191). […] After incubation, PBMCs were harvested and stained with antibodies conjugated to specific fluorophores (BD Biosciences) to delineate immune cell subsets: CD4 T cells (CD3+ CD4+ CD8-), CD8 T cells (CD3+ CD8+ CD4-), NK cells (CD3-CD56+ CD16+), monocytes (CD3-CD14+), B cells (CD3-CD19+), and peripheral dendritic cells (DCs), defined as positive for HLA-DR and negative for a panel of markers: CD3, CD14, CD16, CD19, CD20, CD56 (Lin-1 lineage panel, BD Biosciences).
Additional markers of activation, maturation, and effector function were included for cell subsets, as follows: CD4 and CD8 T cells (CD25, CD38, CD69, IFN-γ, granzyme B, perforin, TNF-α), NK cells (CD25, CD69, IFN-γ), monocytes (CD11c, CD16, CD80, CD86, CD163, TNF-α), B cells (CD40, CD69, CD80, CD86), and DC (CD11c, CD69, CD80, CD86, CD123, and CD163). Cells were stained for surface markers (CD3, CD4, CD8, CD11c, CD14, CD16, CD25, CD69, CD80, CD86, CD163), washed, treated with fixation and permeabilization buffer (eBioscience), and stained for intracellular markers (IFN-γ, granzyme B, perforin, TNF-α). Cells were evaluated by flow cytometry on a LSR Fortessa (BD Biosciences), and data was analyzed with FlowJo software (TreeStar).
Data are expressed as geometric mean percentage (%) and as geometric mean fold-activation (Fold) for each marker and for each PBMC subset obtained from 4 or 6 subjects, as indicated. Fold activation is calculated as a ratio of the % positive for each marker for each PBMC subset at the indicated concentration of the compound of Example 15 relative to % positive for DMSO treated samples. Fold activations that are 1.5 are in bold.

Structure (SMILES): CCCC[C@H](CO)Nc1nc(N)nc2cccnc12 [Example 15]
- B Cells CD69 % (Example 15 1000 nM): 9.1%
- B Cells CD69 Fold vs DMSO (Example 15 1000 nM): 1.1 fold
- B Cells CD80 % (Example 15 1000 nM): 2.2%
- B Cells CD80 Fold vs DMSO (Example 15 1000 nM): 1.4 fold
- DCs CD69 % (Example 15 1000 nM): 8.5%
- DCs CD69 Fold vs DMSO (Example 15 1000 nM): 3.3 fold
- DCs CD80 % (Example 15 1000 nM): 82.0%
- DCs CD80 Fold vs DMSO (Example 15 1000 nM): 2.9 fold
- CD4+ T Cells CD25 % (Example 15 1000 nM): 4.2%
- CD4+ T Cells CD25 Fold vs DMSO (Example 15 1000 nM): 1.8 fold
- CD4+ T Cells CD69 % (Example 15 1000 nM): 11.7%
- CD4+ T Cells CD69 Fold vs DMSO (Example 15 1000 nM): 1.5 fold
- CD4+ T Cells Perforin % (Example 15 1000 nM): 14.2%
- CD4+ T Cells Perforin Fold vs DMSO (Example 15 1000 nM): 1.8 fold
- CD8+ T Cells CD25 % (Example 15 1000 nM): 0.7%
- CD8+ T Cells CD25 Fold vs DMSO (Example 15 1000 nM): 2.2 fold
- CD8+ T Cells CD28 % (Example 15 1000 nM): 0.4%
- CD8+ T Cells CD28 Fold vs DMSO (Example 15 1000 nM): 4.4 fold
- CD8+ T Cells CD38 % (Example 15 1000 nM): 56.8%
- CD8+ T Cells CD38 Fold vs DMSO (Example 15 1000 nM): 2.0 fold
- CD8+ T Cells CD69 % (Example 15 1000 nM): 10.4%
- CD8+ T Cells CD69 Fold vs DMSO (Example 15 1000 nM): 2.2 fold
- Monocytes CD11c % (Example 15 1000 nM): 1.2%
- Monocytes CD11c Fold vs DMSO (Example 15 1000 nM): 1.6 fold
- Monocytes CD69 % (Example 15 1000 nM): 6.2%
- Monocytes CD69 Fold vs DMSO (Example 15 1000 nM): 2.0 fold
- Monocytes CD80 % (Example 15 1000 nM): 86.4%
- Monocytes CD80 Fold vs DMSO (Example 15 1000 nM): 3.0 fold
- NK Cells CD25 % (Example 15 1000 nM): 5.2%
- NK Cells CD25 Fold vs DMSO (Example 15 1000 nM): 10.4 fold
- NK Cells CD69 % (Example 15 1000 nM): 21.1%
- NK Cells CD69 Fold vs DMSO (Example 15 1000 nM): 12.4 fold
- B Cells CD69 % (Example 15 3000 nM): 13.6%
- B Cells CD69 Fold vs DMSO (Example 15 3000 nM): 1.7 fold
- B Cells CD80 % (Example 15 3000 nM): 3.0%
- B Cells CD80 Fold vs DMSO (Example 15 3000 nM): 1.9 fold
- DCs CD69 % (Example 15 3000 nM): 23.2%
- DCs CD69 Fold vs DMSO (Example 15 3000 nM): 8.9 fold
- DCs CD80 % (Example 15 3000 nM): 57.1%
- DCs CD80 Fold vs DMSO (Example 15 3000 nM): 2.0 fold
- CD4+ T Cells CD25 % (Example 15 3000 nM): 3.0%
- CD4+ T Cells CD25 Fold vs DMSO (Example 15 3000 nM): 1.3 fold
- CD4+ T Cells CD69 % (Example 15 3000 nM): 13.1%
- CD4+ T Cells CD69 Fold vs DMSO (Example 15 3000 nM): 1.7 fold
- CD4+ T Cells Perforin % (Example 15 3000 nM): 17.0%
- CD4+ T Cells Perforin Fold vs DMSO (Example 15 3000 nM): 2.1 fold
- CD8+ T Cells CD25 % (Example 15 3000 nM): 0.9%
- CD8+ T Cells CD25 Fold vs DMSO (Example 15 3000 nM): 3.0 fold
- CD8+ T Cells CD28 % (Example 15 3000 nM): 0.5%
- CD8+ T Cells CD28 Fold vs DMSO (Example 15 3000 nM): 4.7 fold
- CD8+ T Cells CD38 % (Example 15 3000 nM): 56.8%
- CD8+ T Cells CD38 Fold vs DMSO (Example 15 3000 nM): 2.0 fold
- CD8+ T Cells CD69 % (Example 15 3000 nM): 11.6%
- CD8+ T Cells CD69 Fold vs DMSO (Example 15 3000 nM): 2.5 fold
- Monocytes CD11c % (Example 15 3000 nM): 1.5%
- Monocytes CD11c Fold vs DMSO (Example 15 3000 nM): 2.1 fold
- Monocytes CD69 % (Example 15 3000 nM): 7.9%
- Monocytes CD69 Fold vs DMSO (Example 15 3000 nM): 2.6 fold
- Monocytes CD80 % (Example 15 3000 nM): 77.4%
- Monocytes CD80 Fold vs DMSO (Example 15 3000 nM): 2.7 fold
- NK Cells CD25 % (Example 15 3000 nM): 4.8%
- NK Cells CD25 Fold vs DMSO (Example 15 3000 nM): 9.6 fold
- NK Cells CD69 % (Example 15 3000 nM): 20.1%
- NK Cells CD69 Fold vs DMSO (Example 15 3000 nM): 11.8 fold
- Concentrations of maximal activation of NK cells (increased expression of CD25 and CD69): 1000 nM
- Concentrations of maximal activation of B cells (increased expression of CD69 and CD80): 3000 nM

From patent US20170071944A1, “MODULATORS OF TOLL-LIKE RECEPTORS FOR THE TREATMENT OF HIV” (Gilead Sciences, Inc., priority 2015, published 2017)
